Measurements published in patent US5965524A, “Analogs of viscosin and uses thereof” (Peptide Technologies Corporation, priority 1994, dated 1999).
Read-outs that look alike come from different tables or passages of the source.

How the values were obtained:
[1] = test system: Herpes Simplex Virus 2 (HSV-2); assay: Inhibition of HSV-2 growth in cultured cells; format: cell-based; details: lowest concentration at which 50% of the viruses are rendered noninfective
From the text: Particularly preferred host cells are rabbit skin cells or Vero cells. […] Acyclovir, a known antiherpesviral agent (Douglas, R., Chapter 51 in Goodman and Gilman's the Pharmacological Basis of Therapeutics, 8th Ed., G. Gilman et al., eds., Pergamon Press, New York (1980)), was used as a positive control.

[2] = Cell toxicity in the HSV-2 assay
From the text: (Davis, B., Chapter 55 in Microbiology, Including Immunology and Molecular Genetics, 3rd Ed., Harper & Row, Philadelphia (1980), p. 1064). Particularly preferred host cells are rabbit skin cells or Vero cells. (Grammer, S., et al., J. Immunol. 145:2249-2253 (1990); Gao, W., et al., J. Biol. Chem. 265:20172-20178 (1990)). […] (See, e.g., Groupe, V., et al., Proc. Soc. Exptl. Biol. Med. 78:354-358 (1951); Mitsuya, H., et al., Science 226:172-174 (1984)). Acyclovir, a known antiherpesviral agent (Douglas, R., Chapter 51 in Goodman and Gilman's the Pharmacological Basis of Therapeutics, 8th Ed., G. Gilman et al., eds., Pergamon Press, New York (1980)), was used as a positive control.

[3] = test system: Leishmania donovani; assay: Effect on growth of L. donovani in serum-containing and serum-free medium; format: cell-based; details: cell densities at 21 hr, in some cases 43 hr, 27° C.; for Lowest concentration with activity against L. Donovani: Growth: serum-containing M199 medium; for Lowest concentration with activity against L. Donovani: Growth (Serum Free Medium): serum-free REIII medium
Procedure: For the purpose of determining the effect of the compounds on the growth of parasite in serum-containing and serum-free medium, the parasites were harvested from culture medium M199+5% FBS, washed twice in HBSS and resuspended in same at 1×10^8 /mL. Serum-containing M199 ans serum-free REIII media were filtered and sterilized prior to use. The washed cells were added to achieve an initial concentration of 1.66×10^6 cells/mL. Cell densities were determined by hemacytometry at 21 hr, and in some cases at 43 hr of incubation at 27° C.

[4] = test system: Leishmania donovani; assay: Lysis of L. donovani parasites; format: cell-based; details: parasites 1x10^8 per mL in HBSS; examined at 4 hr and after overnight at 27° C.

Molecule	HSV-2 LD50 [1] [µg/mL]	Cell Toxicity ([2]; host cells of the HSV-2 assay) [µg/mL]	Lowest concentration with activity against L. Donovani: Growth [3]	Lowest concentration with activity against L. Donovani: Growth (Serum Free Medium) [3]	Cell Toxicity [2] [µg/mL]	Lowest concentration with activity against L. Donovani: Lysis [4]
Nc1nc2c(ncn2COCCO)c(=O)[nH]1 [Acyclovir, reference compound]	0.6 to 1.5					
CCCCCCC[C@@H](O)CC(=O)N[C@@H](CC(C)C)C(=O)N[C@H](CCC(=O)O)C(=O)N[C@@H](C(=O)N[C@@H](C(=O)N[C@@H](CC(C)C)C(=O)N[C@H](CO)C(=O)N[C@@H](CC(C)C)C(=O)N[C@H](CO)C(=O)N[C@H](C(=O)O)[C@@H](C)CC)C(C)C)[C@@H](C)O [Compound 5, Viscosic Acid]		> 100				
CCCCCCC[C@@H](O)CC(=O)N[C@@H](CC(C)C)C(=O)N[C@H](CCC(=O)O)C(N)=O [Compound 7, D-3-Hydroxydecanoyl-L-Leu-D-Glu-Amide]	> 100		no effect	no effect	> 100	no effect
CCCCCCC[C@@H](O)CC(=O)N[C@@H](CC(C)C)C(=O)N[C@H](CCC(=O)OCc1ccccc1)C(=O)Nc1ccc2c(c1)OCCOCCOCCOCCO2 [Compound 10, 15-[[N-[N-[D-3-Hydroxydecanoyl]-L-Leucyl]-O-(phenylmethyl)-D-glutamyl]amino]-2,3,5,6,8,9,11,12-octahydro-1,4,7,10,13-benzopentaoxacyclopentadecin]	> 100		100 mg/mL	100 mg/mL	> 100	30 mg/mL
CCCCCCC[C@@H](O)CC(=O)N[C@@H](CC(C)C)C(=O)N[C@H](CCC(=O)O)C(=O)Nc1ccc2c(c1)OCCOCCOCCOCCO2 [Compound 11, 15-[[N-[N-[D-3-Hydroxydecanoyl]-L-Leucyl]-D-glutamyl]amino]-2,3,5,6,8,9,11,12-octahydro-1,4,7,10,13-benzopentaoxacyclopentadecin]	> 100		no effect	no effect	> 100	no effect
CCCCCCCCCC(=O)N[C@@H](CC(C)C)C(=O)N[C@H](CCC(=O)OCc1ccccc1)C(=O)Nc1ccc2c(c1)OCCOCCOCCOCCO2 [Compound 12, 15-[[N-[N-[Decanoyl]-L-Leucyl]-O-(phenylmethyl)-D-glutamyl]amino]-2,3,5,6,8,9,11,12-octahydro-1,4,7,10,13-benzopentaoxacyclopentadecin]	> 50		no effect	no effect	100	100 mg/mL
CCCCCCCCCC(=O)N[C@@H](CC(C)C)C(=O)N[C@H](CCC(=O)O)C(=O)Nc1ccc2c(c1)OCCOCCOCCOCCO2 [Compound 13, 15-[[N-[N-[Decanoyl]-L-Leucyl]-D-glutamyl]amino]-2,3,5,6,8,9,11,12-octahydro-1,4,7,10,13-benzopentaoxacyclopentadecin]	> 100		no effect	no effect	> 100	no effect
CCCCCCCCCCCCCCC(CCC(=O)OCc1ccccc1)C(=O)Nc1ccc2c(c1)OCCOCCOCCOCCO2 (stereo not shown) [Compound 14]	> 33		100 mg/mL	10 mg/mL	100	30 mg/mL
CCCCCCCCCCCCCCC(CCC(=O)O)C(=O)Nc1ccc2c(c1)OCCOCCOCCOCCO2 (stereo not shown) [Compound 15]	11		30 mg/mL	10 mg/mL	33	30 mg/mL
CC(=O)Nc1ccc2c(c1)OCCOCCOCCOCCO2 [Compound 16]	> 100				> 100	
CCCCCCCCCCCCCCCCCC(=O)c1ccc2c(c1)OCCOCCOCCOCCO2 [Compound 42, Octadecanoyl benzo-15-Crown-5-ether]	> 100				> 100	
Deshydroxy Viscosin [Compound 3]	19 to 28					
Octadecanoyl Viscosin [Compound 4]	> 100					
